Patent publication EP4722228A1, “NEW COMPOUND TARGETING MUSK AND USE THEREOF” (The University of Tokyo, priority 2023, dated 2024)
Numbered stars: 1 amine (or outer) side, 2 acyl side, 3 side chain; on linkers, the order of the positions; unused ones are H or OH. Bridge positions count the residues as written; N and C are the ends. Square brackets hold non-standard residues; d marks the D form. Peptide text beside a SMILES is read from it. I, II: the chains in the order shown. * marks the point of attachment. X2 = O=C(CCN1C(=O)CC([*:1])C1=O)NCCCOCCOCCOCCCNC(=O)CCN1C(=O)CC([*:2])C1=O; ClAc = O=C(CCl)*

Molecular target: T1, human MuSK (Homo sapiens, UniProt O15146)
T1 construct: DNA corresponding to the extracellular portion (amino acids 1-493) was amplified by a PCR method; made in house; host or cells: Expi293F cells
T1 sequence (O15146 24-493): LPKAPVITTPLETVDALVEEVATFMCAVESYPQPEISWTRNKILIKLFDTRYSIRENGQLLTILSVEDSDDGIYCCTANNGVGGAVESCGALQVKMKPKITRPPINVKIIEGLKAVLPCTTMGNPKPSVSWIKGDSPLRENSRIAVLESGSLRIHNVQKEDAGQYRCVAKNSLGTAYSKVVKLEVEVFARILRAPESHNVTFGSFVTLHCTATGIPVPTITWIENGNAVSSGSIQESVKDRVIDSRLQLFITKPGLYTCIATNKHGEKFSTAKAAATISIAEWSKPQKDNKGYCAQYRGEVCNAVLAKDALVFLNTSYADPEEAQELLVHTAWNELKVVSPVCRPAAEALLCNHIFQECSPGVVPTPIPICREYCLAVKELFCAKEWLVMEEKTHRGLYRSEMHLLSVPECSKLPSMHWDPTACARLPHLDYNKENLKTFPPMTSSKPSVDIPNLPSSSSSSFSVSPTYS
Test: SPR binding activity test to human MuSK (Biacore)
Settings: for Kd: 25°C, Fc-tagged human MuSK immobilized, monomer peptides, read-out: Binding activity (KD)
Protocol: The human MuSK protein (extracellular portion) was prepared as a recombinant protein as follows. Using a Flexi clone (FXC31275, Promega Corporation) encoding Human MuSK isoform 1 precursor (NCBI Reference Sequence: NP_005583.1) as a template, DNA corresponding to the extracellular portion (amino acids 1-493) was amplified by a PCR method. XhoI and EcoRI restriction enzyme recognition sequences were added to both the 5' and 3' ends of the amplified DNA sequence, and these were used for insertion into the multiple cloning site of a pCAG-Neo hIgG1-Fc plasmid (Fujifilm Wako Pure Chemical Corporation). This plasmid (pCAG-Neo hMuSK-Fc) enables expression of a chimeric protein of the secretory human MuSK extracellular portion and human IgG1 Fc (hMuSK-Fc; molecular weight of approximately 200 kDa) in animal cells. In practice, ExpiFectamine 293 reagent (Invitrogen) was used to transfect the pCAG-Neo hMuSK-Fc plasmid into Expi293F cells (Invitrogen), and shaking culture was carried out (for 6 days) in an incubator containing 8% CO2. Next, the culture supernatant was collected, centrifuged, and sterilized by filtration through a 0.22 µm filter. The obtained culture supernatant was subjected to Protein G purification, and finally, a purified hMuSK-Fc sample with 99.96% purity (AKTA-FPLC analysis) was obtained.
The strength of binding between MuSK and the cyclic peptides was evaluated by quantitatively measuring the binding kinetics (binding affinity (dissociation constant) KD) of the cyclic peptides to MuSK immobilized on a sensor chip via an Fc tag, using surface plasmon resonance (SPR).
According to the standard immobilization protocol provided by the manufacturer, Fc-tagged human/mouse/rat MuSK was immobilized on a Protein G chip or a Protein A chip (Cytiva). A running buffer for the monomer/dimer peptides contained 0.010 M phosphate, 0.14 M NaCl, 0.0027 M KCl, 0.05% (v/v) Tween 20, and 0.1% (v/v) DMSO. A running buffer for the monomer/dimer U-bodies contained 0.010 M phosphate, 0.14 M NaCl, 0.0027 M KCl, and 0.05% (v/v) Tween 20. A series of concentrations of each monomer peptide, dimer peptide, monomer U-body, and dimer U-body was injected as analytes. A 1:1 binding fitting analysis was applied using Biacore evaluation software, and ka, kd, and KD values were determined.
Fc-tagged human MuSK was prepared according to the procedure described in Example 1(1). In addition, Fc-tagged mouse MuSK was used by expressing a nucleotide sequence encoding the Fc-tagged mouse MuSK extracellular domain (SEQ ID NO: 34). In addition, Fc-tagged rat MuSK was used as a chimeric protein of rat MuSK and an Fc protein, namely, Recombinant Rat MuSK Fc Chimera Protein (catalog number: 9847-MK-050, R&D Systems).
The affinity of the U-bodies and their complexes obtained as described above for MuSK of human, rat, and mouse was evaluated (binding activity test). The test was carried out according to the procedure described in Example 1(3). However, for the complexes of U-bodies, surface plasmon resonance (SPR) analysis was carried out using a Biacore 8K (Cytiva).

SMILES | Kd | koff (human MuSK, peptide homodimers) | kon (human MuSK, peptide homodimers)
CC(=O)N[C@H](Cc1ccc(O)cc1)C(=O)N[C@@H](CC(C)C)C(=O)N1CCC[C@H]1C(=O)N[C@@H](CCC(=O)O)C(=O)N[C@@H](Cc1ccccc1)C(=O)N[C@@H](CO)C(=O)N[C@@H](Cc1c[nH]c2ccccc12)C(=O)N1CCC[C@H]1C(=O)N[C@@H](CCC(=O)O)C(=O)N[C@@H](CO)C(=O)N[C@@H](Cc1ccccc1)C(=O)N[C@H](C(=O)N[C@@H](CC(C)C)C(=O)N[C@@H](Cc1ccccc1)C(=O)N[C@@H](CC(C)C)C(=O)N[C@@H](CCCNC(=N)N)C(=O)N[C@@H](CCC(N)=O)C(=O)N[C@@H](CCCNC(=N)N)C(=O)N[C@@H](CCC(N)=O)C(=O)N[C@@H](CCCNC(=N)N)C(=O)N[C@@H](CCC(N)=O)C(=O)N[C@@H](CC(C)C)C(=O)NCC(=O)N[C@@H](CCCNC(=N)N)C(=O)NCC(=O)N[C@@H](C)C(=O)N[C@@H](CCC(=O)O)C(N)=O)C(C)C [MuSK1Ac] (Ac-[dY]LPEFSWPESFVLFLRQRQRQLGRGAE-NH2) | 1.6 nM | – | –
CC(C)C[C@H](NC(=O)[C@H](CCC(N)=O)NC(=O)[C@H](CCCNC(=N)N)NC(=O)[C@H](CCC(N)=O)NC(=O)[C@H](CCCNC(=N)N)NC(=O)[C@H](CCC(N)=O)NC(=O)[C@H](CCCNC(=N)N)NC(=O)[C@H](CC(C)C)NC(=O)[C@H](Cc1ccccc1)NC(=O)[C@H](CC(C)C)NC(=O)[C@@H](NC(=O)[C@H](Cc1ccccc1)NC(=O)[C@H](CO)NC(=O)[C@H](CCC(=O)O)NC(=O)[C@@H]1CCCN1C(=O)[C@H](Cc1c[nH]c2ccccc12)NC(=O)[C@H](CO)NC(=O)[C@H](Cc1ccccc1)NC(=O)[C@H](CCC(=O)O)NC(=O)[C@@H]1CCCN1C(=O)[C@H](CC(C)C)NC(=O)[C@@H](Cc1ccc(O)cc1)NC(=O)CCl)C(C)C)C(=O)NCC(=O)N[C@@H](CCCNC(=N)N)C(=O)NCC(=O)N[C@@H](C)C(=O)N[C@@H](CCC(=O)O)C(N)=O [MuSK1] (ClAc-[dY]LPEFSWPESFVLFLRQRQRQLGRGAE-NH2) | 2.2 nM | – | –
CC(C)C[C@@H]1NC(=O)[C@H](CC(C)C)NC(=O)[C@H](CO)NC(=O)[C@H](C(C)C)NC(=O)[C@H](C(C)C)NC(=O)[C@H](CC(N)=O)NC(=O)[C@H]([C@@H](C)O)NC(=O)[C@@H]2CCCN2C(=O)[C@H](Cc2ccccc2)NC(=O)[C@@H](Cc2ccc(O)cc2)NC(=O)CSC[C@@H](C(=O)N[C@@H](CSC2CC(=O)N(CCC(=O)NCCCOCCOCCOCCCNC(=O)CCN3C(=O)CC(SC[C@H](NC(=O)[C@@H]4CSCC(=O)N[C@H](Cc5ccc(O)cc5)C(=O)N[C@@H](Cc5ccccc5)C(=O)N5CCC[C@H]5C(=O)N[C@@H]([C@@H](C)O)C(=O)N[C@@H](CC(N)=O)C(=O)N[C@@H](C(C)C)C(=O)N[C@@H](C(C)C)C(=O)N[C@@H](CO)C(=O)N[C@@H](CC(C)C)C(=O)N[C@@H](CC(C)C)C(=O)N[C@@H](CCCCN)C(=O)N[C@@H](CO)C(=O)N4)C(N)=O)C3=O)C2=O)C(N)=O)NC(=O)[C@H](CO)NC(=O)[C@H](CCCCN)NC1=O (stereo partly shown) [MuSK4 PEG3 dimer] (I: {CH2CO}-[dY]FPTNVVSLLKSCC-NH2 / II: {CH2CO}-[dY]FPTNVVSLLKSCC-NH2; linker I:14-II:14 via X2; thioether I:N-I:13, II:N-II:13) | – | 0.0044 s⁻¹ | 650000 M⁻¹ s⁻¹
